Like-named read-outs stand apart in the source and are kept apart here.
Columns and labels:
[1] = test system: CCRF-CEM human T-cell acute lymphoblastic leukemia cells; test: In vitro cytotoxicity against CCRF-CEM (XTT / CCK-8 tetrazolium assay, 72 hr); conditions: for IC50: Homo sapiens, CCRF-CEM
[2] = test system: CCRF-CEM/VBL100 vinblastine-resistant cells; test: In vitro cytotoxicity against vinblastine-resistant CCRF-CEM subline; assay type: cell-based, human; conditions: for IC50: Homo sapiens, CCRF-CEM, 72 h, CCK-8, 72-hr incubation, read-out: IC50 CCRF-CEM/Vinblastine
Method: The cytotoxicity IC50 of each compound was measured with the XTT assay using the 2,3-bis(2-methoxy-4-nitro-5-sulfophenyl)-5-[(phenylamino)carbonyl]-2H-tetrazolium hydroxide (XTT) microculture method as described in Scudiero et al., Cancer Res., 48:4827 (1988), the contents of which are hereby incorporated by reference in their entirety. The CCK-8 assay is a cell counting kit-8 (CCK-8) tetrazolium assay using a 96-well microplate (Dojindo Molecular Technologies, Inc., Rockville, Md.) (M. Ishiyama et al., Biol. Pharm. Bull. 19: 1518, 1996). Absorbance was measured by Powerwave a XS microplate spectrophotometer. This method described is considered a general method in vitro cytotoxicity studies.
(§1) The data in Tables 2X, 3A-E, 4, 5, and 6 were obtained using the cell counting kit-8 (CCK-8) tetrazolium assay in a 96-well microplate. Five to seven concentrations of each compound in triplicate were used, and the IC50 values were determined by CompuSyn software automation (Chou T C. and Martin N. ComboSyn, Inc., 2006) based on the median-effect equation and plot (Chou T C. J. Theor. Biol. 59:235-276, 1976; Chou T C. Pharmacol. Rev. 58: 621-681, 2006). […] The r value defines the correlation coefficient of the median-effect plot which signifies the conformity to the mass-action law principle (Chou T C. J. Theor. Biol. 59:235-276, 1976; Chou T C. Pharmacol. Rev. 58:621-681, 2006). These parameters were determined by CompuSyn simulation (available at http://www.combosyn.com).
CCRF-CEM human T-cell acute lymphoblastic leukemia cells and the corresponding vinblastine-resistant cells (CCRF-CEM/VBL100) were cultured at an initial density of 5×10^4 cells per milliliter. The cultured cells were maintained in a 5% CO2-humidified atmosphere at 37° C. in RPMI medium 1640 (GIBCO/BRL) containing penicillin (100 units/mL), streptomycin (100 μg/mL, GIBCO/BRL), and 10% heat-inactivated fetal bovine serum. The cytotoxicity of each Compound of the invention was measured using the 2,3-bis(2-methoxy-4-nitro-5-sulfophenyl)-5-[(phenylamino)carbonyl]-2H-tetrazolium hydroxide (XTT) microculture method as described in Scudiero et al., Cancer Res., 48:4827 (1988), the contents of which are hereby incorporated by reference in their entirety.
(§2) Absorbance was measured by Powerwave XS microplate spectrophotometer.

[3] = test system: CCRF-CEM subline resistant to TAXOL; test: In vitro cytotoxicity against TAXOL-resistant CCRF-CEM subline; assay type: cell-based, human; conditions: Homo sapiens, CCRF-CEM; Table 3D; CCK-8, 72-hr incubation; read-out: IC50 CCRF-CEM/TAXOL
Method: as §1, §2

HCT-116 colon carcinoma = test: Cytotoxicity against solid tumor cells, CCK-8, 72 hrs (Table 4); assay type: cell-based; conditions: Homo sapiens
Method: (§3) Compounds are also evaluated against A-549 lung carcinoma and SK-OV-3 ovarian adenocarcinoma cell lines using the methodology as for Table 3. The potency order for the compounds may vary in different tumor cell lines. […] Absorbance was measured using a Powerwave XS microplate spectrophotometer.

MX-1 mammary carcinoma = test: as above; assay type: cell-based; conditions: Homo sapiens
Method: as §3

A-549 lung carcinoma = test: Cytotoxicity against solid tumor cells (Table 4); assay type: cell-based; conditions: Homo sapiens, A549, CCK-8, 72 hrs
Method: as §3

[4] = test system: SK-OV-3 ovarian adenocarcinoma; test: Cytotoxicity against solid tumor cells (Table 4); assay type: cell-based; conditions: Homo sapiens, CCK-8, 72 hrs
Method: as §3

human PBMC lymphocytes = test: DNA synthesis ([3H]thymidine incorporation) in human PBMC lymphocytes (FIG. 8); assay type: cell-based
Description: FIG. 8 show the effects of PHA and different concentrations of compounds of the invention, at different time points, on the proliferation of a culture of human lymphocytes as measured by DNA synthesis through incorporation of radiolabeled thymidine into the DNA.
The main principle and method of experiments for human PBMC lymphocytes and for mouse splenocytes stimulations were the same, since both measure immunological cell stimulation by PHA, PXT and compounds of the invention. Both the lymphocyte and the splenocyte assays measure the ^3H-dThd tracer as an indication of DNA synthesis. For PBMC lymphocytes (FIGS. 9A-9G), the experimental methods are those for splenocytes disclosed in Example 24 (FIGS. 11A-11F; FIGS. 12A-12E), except 0.282×10^6 PBMC lymphocyte cells in 198.5 μl was used, and the experimental incubation time was extended to 120 hr.
Briefly, to generate the data in Tables 8A and 8B, the compounds were tested in a [^3H] thymidine uptake experiment using PBMC human lymphocytes obtained from the New York Blood Center. PBMC human lymphocytes were exposed to compounds at 0.03, 0.1, 0.3, and 1.0 μM for 24 hours, and examined for increased [^3H] thymidine uptake. Human lymphocytes were also exposed to compounds for an extended time, e.g., 48 hrs and 72 hrs, instead of 24 hrs, in the [^3H] thymidine uptake assay, and examined to determine the extent of increased [^3H] thymidine uptake to determine if extended exposure will further increase the immune-enhancing effects of the compounds. Increased [^3H] thymidine uptake is interpreted as increased DNA synthesis, which indicates cell growth and division. In the case of immune system cells, this should result in an immune-enhancing effect. The compounds are compared by their IC50 values and/or their effect on [^3H] thymidine uptake at a given concentration and/or time point.

[5] = test system: human lymphoblastic leukemic T-cell growth; test: Cytotoxic activity relative to stability during storage at −20° C. in DMSO (Table 10); assay type: cell-based; conditions: for IC50: Homo sapiens, CCRF-CEM, 72 h, Table 10, XTT, 72 hr
Description: Without wishing to be bound by theory, the oxidized versions may be active metabolites. This theory provides an explanation of the delayed onset of therapeutic effects seen in the figures herein. The oxidized compounds may be active agents that are formed slowly upon metabolic oxidation. […] The active metabolites may explain the biphasic pharmacological properties of panaxytriol or Compound D that have been observed (FIGS. 9B, C, D; FIGS. 11D, E, F, and FIGS. 12D, E). […] Induction of the phase 2 enzymes may slow oxidation of the compounds (Ng et al., Tetrahedron Letters. 49: 7178-7179 (2008)).

[6] = test system: human mammary carcinoma MX-1 xenograft; test: Therapeutic effect and body weight in nude mice bearing MX-1 xenograft, single agents
Method: FIGS. 1A and 1B show the therapeutic, anti-cancer effects of various dosage regimens of panaxytriol and Compound (A), respectively, given by i.v. injection in nude mice bearing human mammary carcinoma MX-1 xenograft tumors, which is an in vivo model for breast cancer. […] The compounds were administered starting on day 8.
An in vivo assay uses male athymic nude mice bearing the nu/nu gene (6 weeks of age or older, weighing between 20 and 22 g, obtainable from NCl, Frederick, Md.) into which one or more human tumor xenografts are been implanted.
Nude mice having human mammary carcinoma xenograft MX-1 were treated with panaxytriol or Compound (A) at various dosages through the slow i.v. infusion protocol by Chou et al. (Chou, T. C., et al, Proc. Natl. Acad. Sci. U.S.A. 95: 15798 (1998), the contents of which are herein incorporated by reference in their entirety).

[7] = mouse, in vivo
Method: The experimental procedure for FIG. 14 was carried out similarly to that in FIG. 1. * means P<0.1 and ** means P<0.05. Body weight was calculated as described for FIGS. 1 and 4-7.
The experiments were performed as indicated for FIG. 14, with Compound (K) being administered orally. Compound K was administered on the days indicated by the arrows at the top of the graph, and paclitaxel was administered on the days indicated by the arrows on the bottom of the graph. Body weight was calculated as described for FIGS. 1, 4-7, 14 and 15. * means P<0.1 and ** means P<0.05.

[8] = test system: quinone reductase (NQO1) in Hepa 1c1c7 murine hepatoma cells; conditions: for comparison; cited from earlier work
[9] = test system: human mammary carcinoma MX-1 xenografts; conditions: nude, mouse, in vivo
[10] = 72 h, read-out: IC50 CCRF-CEM, Table 3D, CCK-8, 72-hr incubation
[11] = read-out: IC50 (in μM), cytotoxic potency against cancer cell line growth in vitro, Table 3C, cell line not given

Compound	IC50 [1, 10]	IC50 [1, 11]	IC50 ([2]; Table 3D)	IC50 [3]	IC50 (HCT-116 colon carcinoma)	IC50 (MX-1 mammary carcinoma)	IC50 (A-549 lung carcinoma)	IC50 [4]	further results
CCCCCCC[C@H]1OC(C)(C)O[C@@H]1CC#CC#CC(=O)CC [Compound (J)]	0.83 ± 0.26 µM	0.83 µM	1190 nM	1720 nM	1090 nM	1470 nM	12600 nM	13000 nM	–
C=C[C@@H](O)C#CC#CC[C@H]1OC(C)(C)O[C@@H]1CCCCCCC [Compound (A)]	0.803 µM	–	1120 nM	–	1280 nM	1920 nM	3950 nM	3000 nM	anti-cancer activity in the in vitro cytotoxicity assay [1]: active against cancer; cross-resistance to TAXOL or vinblastine ([2]; TAXOL- or vinblastine-resistant (MDR) sublines): do not appear to be cross-resistant to TAXOL or vinblastine; fold resistance in brackets (IC50 CCRF-CEM/VBL vs CCRF-CEM) ([2]; Table 3): 1.22 x; fold resistance (IC50 CCRF-CEM/VBL vs parent CCRF-CEM) ([2]; Table 3A): 1.4 fold; fold of cross-resistance (CCRF-CEM/Vinblastine vs parent cell line) ([2]; Table 3D, given as x or -fold): 1.4 fold; time of maximal stimulation of lymphocyte (human PBMC lymphocytes): 120 h; IC50 ([5]; Aug. 22, 2003 (Stored), same solution kept at −20° C. in DMSO, read-out: IC50 in μM CCRF-CEM): 2.12 µM; IC50 ([5]; Aug. 22, 2003 (Stored), same solution kept at −20° C. in DMSO, read-out: IC50 in μM CCRF-CEM/VBL): 2.37 µM; IC50 ([5]; Jul. 25, 2003 (Fresh), read-out: IC50 in μM CCRF-CEM): 1.21 ± 0.03 µM; IC50 ([5]; Jul. 25, 2003 (Fresh), read-out: IC50 in μM CCRF-CEM/VBL): 1.22 ± 0.15 µM; tumor suppression compared to the control tumor size ([6]; Day 24, i.v. injection Q2D, escalating doses from day 8, FIGS. 1A, 1B): 47.7%; antitumor effects against MX-1 xenografts ([6]; mouse, in vivo): antitumor effects; level inhibiting tumor growth (as low as) ([6]; mouse, in vivo): 10 mg/kg
CCCCCCC[C@H]1OC(C)(C)O[C@@H]1CC#CC#C[C@@H](O)CC [Compound (K)]	2.03 ± 0.13 µM	2.03 µM	3300 nM	3570 nM	3170 nM	3440 nM	1020 nM	4030 nM	stability (shelf life) ([5]; compared with Compound D): more stable than Compound D; reduction of paclitaxel-induced general toxicity and neurotoxicity compared with Compound D [7]: superior to Compound D; effect of oral administration on paclitaxel toxicity ([7]; po): orally effective in Reducing the Toxicity of paclitaxel and improving recovery after treatment
C=Cc1c(C)c2cc3nc(c4c5[n-]c(cc6nc(cc1[n-]2)C(C)=C6CC)c(C)c5C(=O)[C@@H]4C(=O)OC)[C@@H](CCC(=O)OC/C=C(\C)CCC[C@H](C)CCC[C@H](C)CCCC(C)C)[C@@H]3C.[Mg+2] [chlorophyll a]	–	–	–	–	–	–	–	–	reported CD value [8]: 250 µM; reported inducer potency [8]: 24,600 U/g
O=c1[nH]cc(F)c(=O)[nH]1 [Compound 5FU, 5-fluoro-uracil]	–	–	–	–	–	–	–	–	mice died [9]: 5/8

From US8859615B2, “Compounds, compositions and methods for reducing toxicity and treating or preventing diseases” (priority 2008, dated 2014)
